# Laboratory results published in ChEMBL document CHEMBL1165930, “The anticancer activity of 3- and 10-bromofascaplysins is mediated by caspase-8, -9, -3-dependent apoptosis” (Bioorg Med Chem, 2010).
# The source made the active and inactive calls. The rule behind the calls is not given here.
# Experiments:
# HL-60 [1] = test: Induction of apoptosis in human HL60 cells assessed as decrease in procaspase-9 level at 500 nM after 24 hrs by Western blot analysis; assay type: functional, cell-based
# HL-60 [2] = test: Induction of apoptosis in human HL60 cells assessed as decrease in procaspase-3 level at 500 nM after 24 hrs by Western blot analysis; assay type: functional, cell-based
# HL-60 [3] = test: Induction of apoptosis in human HL60 cells assessed as decrease in Bid protein level at 500 nM after 24 hrs by Western blot analysis; assay type: functional, cell-based
# HL-60 [4] = test: Induction of apoptosis in human HL60 cells assessed as decrease in procaspase-8 level at 250 nM after 24 hrs by Western blot analysis; assay type: functional, cell-based
# HL-60 [5] = test: Induction of apoptosis in human HL60 cells assessed as decrease in procaspase-9 level at 250 nM after 24 hrs by Western blot analysis; assay type: functional, cell-based
# HL-60 [6] = test: Induction of apoptosis in human HL60 cells assessed as decrease in procaspase-3 level at 250 nM after 24 hrs by Western blot analysis; assay type: functional, cell-based
# HL-60 [7] = test: Induction of apoptosis in human HL60 cells assessed as decrease in Bid protein level at 250 nM after 24 hrs by Western blot analysis; assay type: functional, cell-based
# HL-60 [8] = test: Induction of apoptosis in human HL60 cells assessed as decrease in PARP level at 250 nM after 24 hrs by Western blot analysis; assay type: functional, cell-based
# HL-60 [9] = test: Induction of apoptosis in human HL60 cells assessed as decrease in PARP level at 500 nM after 24 hrs by Western blot analysis; assay type: functional, cell-based
# HL-60 [10] = test: Induction of apoptosis in human HL60 cells assessed as change in mitochondrial permeability at 500 nM after 24 hrs by DiOC6 staining-based flow cytometry (RVb = 90.3%); assay type: functional
# [11] = molecular target: Cellular tumor antigen p53 (Mus musculus) (UniProt P02340); test: Inhibition of p53-mediated transcriptional activity in mouse JB6 Cl41 cells at 125 to 500 nM by luciferase reporter gene assay; assay type: cell-based; details: TDE = time-dependent effect
# Chain of Cellular tumor antigen p53 (Mus musculus) (P02340 whole entry): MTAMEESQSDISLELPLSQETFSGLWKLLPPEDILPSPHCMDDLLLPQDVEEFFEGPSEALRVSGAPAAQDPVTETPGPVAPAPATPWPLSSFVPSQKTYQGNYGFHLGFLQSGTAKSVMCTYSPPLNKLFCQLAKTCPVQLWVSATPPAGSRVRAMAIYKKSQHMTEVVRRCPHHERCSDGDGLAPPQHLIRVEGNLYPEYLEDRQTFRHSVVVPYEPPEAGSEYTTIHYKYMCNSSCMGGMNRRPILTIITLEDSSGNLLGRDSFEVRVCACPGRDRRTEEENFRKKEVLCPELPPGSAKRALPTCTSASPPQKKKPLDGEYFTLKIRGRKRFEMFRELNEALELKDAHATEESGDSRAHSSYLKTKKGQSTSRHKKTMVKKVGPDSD
# [12] = molecular target: Cellular tumor antigen p53 (Mus musculus) (UniProt P02340); test: Inhibition of p53-mediated transcriptional activity in mouse JB6 Cl41 cells after 24 hrs by luciferase reporter gene assay; assay type: cell-based; details: TDE = time-dependent effect
# [13] = Effect on proliferation of p53-expressing mouse JB6 Cl41 cells assessed as cell viability at 375 to 500 nM after 6 hrs; assay type: functional
# [14] = molecular target: Cellular tumor antigen p53 (Mus musculus) (UniProt P02340); test: Inhibition of p53-mediated transcriptional activity in mouse JB6 Cl41 cells at 375 to 500 nM after 6 hrs by luciferase reporter gene assay relative to control; assay type: cell-based
# [15] = molecular target: Cellular tumor antigen p53 (Mus musculus) (UniProt P02340); test: Inhibition of p53-mediated transcriptional activity in mouse JB6 Cl41 cells at 125 to 250 nM after 24 hrs by luciferase reporter gene assay relative to control; assay type: cell-based
# [16] = molecular target: Transcription factor Jun (Mus musculus) (UniProt P05627); test: Induction of AP1-mediated transcriptional activity in mouse JB6 Cl41 cells at 15 to 500 nM by luciferase reporter gene assay; assay type: cell-based
# Chain of Transcription factor Jun (Mus musculus) (P05627 whole entry): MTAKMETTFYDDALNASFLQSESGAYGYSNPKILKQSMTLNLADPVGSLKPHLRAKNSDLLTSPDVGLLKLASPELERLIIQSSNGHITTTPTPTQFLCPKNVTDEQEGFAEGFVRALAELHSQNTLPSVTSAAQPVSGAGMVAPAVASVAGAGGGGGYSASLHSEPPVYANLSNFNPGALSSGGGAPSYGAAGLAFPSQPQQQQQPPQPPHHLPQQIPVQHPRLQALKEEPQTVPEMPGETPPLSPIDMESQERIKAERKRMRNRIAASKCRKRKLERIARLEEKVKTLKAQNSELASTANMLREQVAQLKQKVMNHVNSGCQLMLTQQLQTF
# [17] = molecular target: Transcription factor Jun (Mus musculus) (UniProt P05627); test: Induction of AP1-mediated transcriptional activity in mouse JB6 Cl41 cells after 24 hrs by luciferase reporter gene assay; assay type: cell-based
# [18] = molecular target: Transcription factor Jun (Mus musculus) (UniProt P05627); test: Induction of AP1-mediated transcriptional activity in mouse JB6 Cl41 cells at 125 to 250 nM after 6 hrs by luciferase reporter gene assay relative to control; assay type: cell-based
# [19] = molecular target: Transcription factor Jun (Mus musculus) (UniProt P05627); test: Induction of AP1-mediated transcriptional activity in mouse JB6 Cl41 cells at 125 to 250 nM after 24 hrs by luciferase reporter gene assay relative to control; assay type: cell-based
# JB6 Cl41 [20] = test: Effect on EGF-stimulated proliferation of mouse JB6 Cl41 cells at 125 nM after 22 hrs by MTS assay; assay type: functional, cell-based
# JB6 Cl41 [21] = test: Effect on EGF-stimulated proliferation of p38-expressing mouse JB6 Cl41 cells at 125 nM after 22 hrs by MTS assay; assay type: functional, cell-based
# [22] = Effect on EGF-stimulated proliferation of JNK1-expressing mouse JB6 Cl41 cells assessed as cell viability at 125 nM after 22 hrs by MTS assay; assay type: functional; details: JB6 Cl41, 22 h, read-out: Activity
# [23] = Effect on EGF-stimulated proliferation of ERK2-expressing mouse JB6 Cl41 cells assessed as cell viability at 125 nM after 22 hrs by MTS assay; assay type: functional; details: JB6 Cl41, 22 h, read-out: Activity
# [24] = Effect on EGF-stimulated proliferation of JNK1-expressing mouse JB6 Cl41 cells assessed as cell death at 250 nM after 22 hrs by MTS assay; assay type: functional
# [25] = Effect on EGF-stimulated proliferation of ERK2-expressing mouse JB6 Cl41 cells assessed as cell death at 250 nM after 22 hrs by MTS assay; assay type: functional
# [26] = Effect on EGF-stimulated proliferation of mouse JB6 Cl41 cells assessed as cell viability at 250 nM after 22 hrs by MTS assay; assay type: functional; details: JB6 Cl41, 22 h, read-out: Activity
# [27] = Effect on EGF-stimulated proliferation of p38-expressing mouse JB6 Cl41 cells assessed as cell viability at 250 nM after 22 hrs by MTS assay; assay type: functional; details: JB6 Cl41, 22 h, read-out: Activity
# [28] = Selectivity ratio of INCC50 for mouse JB6 Cl41 cells to IC50 for mouse JB6 Cl41 cells; assay type: functional
# HL-60 [29] = test: Selectivity ratio of INCC50 for human HL60 cells to IC50 for human HL60 cells; assay type: functional
# HeLa = test: Selectivity ratio of INCC50 for human HeLa cells to IC50 for human HeLa cells; assay type: functional
# SK-MEL-28 = test: Selectivity ratio of INCC50 for human SK-MEL-28 cells to IC50 for human SK-MEL-28 cells; assay type: functional
# THP-1 = test: Selectivity ratio of INCC50 for human THP1 cells to IC50 for human THP1 cells; assay type: functional
# JB6 Cl41 [30] = test: Inhibition of EGF-stimulated neoplastic transformation of mouse JB6 Cl41 cells by anchorage-independent soft agar assay; assay type: functional, cell-based
compound,measurement,setting,value
O=C1c2ccc(Br)cc2-[n+]2ccc3c([nH]c4ccccc43)c21.[Cl-],inhibition,HL-60 [1],Active
same,inhibition,HL-60 [2],Active
same,inhibition,HL-60 [3],Active
same,inhibition,HL-60 [4],Active
same,inhibition,HL-60 [5],Active
same,inhibition,HL-60 [6],Active
same,inhibition,HL-60 [7],Active
same,inhibition,HL-60 [8],Active
same,inhibition,HL-60 [9],Active
same,Activity,HL-60 [10],30.6%
same,inhibition,[11],tde
same,inhibition,[12],tde
same,Activity,[13],50%
same,inhibition,[14],30%
same,inhibition,[15],40%
same,Activity,[16],tde
same,Activity,[17],Dose-dependent effect
same,fold change (FC),[18],2
same,fold change (FC),[19],1.5
same,Activity,JB6 Cl41 [20],inactive
same,Activity,JB6 Cl41 [21],inactive
same,viability at 0.125 µM,[22],60%
same,viability at 0.125 µM,[23],30%
same,Activity,[24],100%
same,Activity,[25],100%
same,viability at 0.25 µM,[26],60%
same,viability at 0.25 µM,[27],40%
same,Selectivity ratio,[28],2.7
same,Selectivity ratio,HL-60 [29],5.3
same,Selectivity ratio,HeLa,3.1
same,Selectivity ratio,SK-MEL-28,4.8
same,Selectivity ratio,THP-1,8.7
same,inhibition,JB6 Cl41 [30],Dose-dependent effect
